Laboratory results taken from patent US3974152A, “3-Ethyl- and 3-(2'cyanoethyl)-cephalosporins” (Glaxo Laboratories Limited, priority 1970, dated 1976).
Converted amounts (≈) assume the structure as drawn.

Experiments:
PR. MIRABILIS 431 = test: Tube Dilution Assay, PR. MIRABILIS 431; assay type: cell-based; conditions: Proteus mirabilis; read-out: Tube Dilution Assay, gram negative, PR. MIRABILIS 431
STAPH AUREUS 663 = test: Tube Dilution Assay, STAPH AUREUS 663; assay type: cell-based; conditions: Staphylococcus aureus; read-out: Tube Dilution Assay, gram positive, STAPH AUREUS 663
STAPH AUREUS 3452 = test: Tube Dilution Assay, STAPH AUREUS 3452; assay type: cell-based; conditions: Staphylococcus aureus; read-out: Tube Dilution Assay, gram positive, STAPH AUREUS 3452
S. TYPHIMURIUM 804 = test: Tube Dilution Assay, S. TYPHIMURIUM 804; assay type: cell-based; conditions: Salmonella enterica, read-out: Tube Dilution Assay, gram negative, S. TYPHIMURIUM 804
STAPH AUREUS 11127 [1] = test: Mouse Protection, STAPH AUREUS 11127; assay type: in vivo; conditions: Staphylococcus aureus
[2] = R.O.U.R.: recovery of the antibiotic from the urine of female rats following oral administration; assay type: in vivo; conditions: rat
Excerpt: *R.O.U.R. = % recovery of the antibiotic from the urine of female rats
following oral administration of the antibiotic.

STAPH AUREUS 604 = test: Tube Dilution Assay, STAPH AUREUS 604; assay type: cell-based; conditions: Staphylococcus aureus; read-out: Tube Dilution Assay, gram positive, STAPH AUREUS 604
STAPH AUREUS 11127 [3] = test: Tube Dilution Assay, STAPH AUREUS 11127; assay type: cell-based; conditions: Staphylococcus aureus; read-out: Tube Dilution Assay, gram positive, STAPH AUREUS 11127
E. COLI 573 = test: Tube Dilution Assay, E. COLI 573; assay type: cell-based; conditions: Escherichia coli; read-out: Tube Dilution Assay, gram negative, E. COLI 573
[4] = activity on oral administration; assay type: in vivo
[5] = absorption and blood levels by the oral route; assay type: in vivo
[6] = animal tests of degradation in vivo
[7] = tested on: gram-positive and gram-negative organisms; test: in vitro antibacterial tests; assay type: cell-based

Structure (SMILES)	MIC (PR. MIRABILIS 431)	MIC (STAPH AUREUS 663)	MIC (STAPH AUREUS 3452)	MIC (S. TYPHIMURIUM 804)	ED50 (STAPH AUREUS 11127 [1])	dose excreted [2]	MIC (STAPH AUREUS 604)	MIC (STAPH AUREUS 11127 [3])	MIC (E. COLI 573)	activity on oral administration [4]	absorption by the oral route [5]	blood levels [5]	degradation in vivo [6]	activity against gram-positive and gram-negative organisms [7]
CCC1=C(C(=O)O)N2C(=O)[C@@H](NC(=O)[C@H](N)c3ccccc3)[C@H]2SC1.O=C(O)C(F)(F)F [1(d), 7β-(D-2-Amino-2-phenylacetamido)-3-ethylceph-3-em-4-carboxylic acid, Trifluoroacetic Acid Salt]	16 µg/mL	0.3 µg/mL	1.6 µg/mL	16 µg/mL	< 6 mg/kg	45%	1.6 µg/mL	0.08 µg/mL	8 µg/mL					
CCC1=C(C(=O)O)N2C(=O)[C@@H](NC(=O)[C@H](N)c3ccccc3)[C@H]2SC1 [Example 4(b), 7β-(D-2-Amino-2-phenylacetamido)-3-ethylceph-3-em-4-carboxylic acid]										appreciable level of activity	well absorbed	good blood levels	substantially resistant to degradation in vivo	active against gram-positive and gram-negative organisms
N#CCCC1=C(C(=O)O)N2C(=O)[C@@H](NC(=O)Cc3cccs3)[C@H]2SC1 [2(c), 3-(2-Cyanoethyl)-7β-(2-thienylacetamido)ceph-3-em-4-carboxylic acid]	31 µg/mL (≈ 82.1 µM)	0.08 µg/mL (≈ 0.212 µM)	4 µg/mL (≈ 10.6 µM)	16 µg/mL (≈ 42.4 µM)		2.1%	1.25 µg/mL (≈ 3.31 µM)	1 µg/mL (≈ 2.65 µM)	62 µg/mL (≈ 164 µM)					
